# Results published in US20140187548A1, “6 SUBSTITUTED IMIDAZOPYRAZINES FOR USE AS MPS-1 AND TKK INHIBITORS IN THE TREATMENT OF HYPERPROLIFERATIVE DISORDERS” (BAYER INTELLECTUAL PROPERTY GMBH, priority 2010, published 2014).
# Molecular target: T1, human kinase Mps-1 (Homo sapiens, UniProt P33981)
# T1 construct: N-terminally GST-tagged human full length recombinant Mps-1 kinase; GST (N); purchased Invitrogen, Karslruhe, Germany PV4071
# T1 sequence (P33981 1-857): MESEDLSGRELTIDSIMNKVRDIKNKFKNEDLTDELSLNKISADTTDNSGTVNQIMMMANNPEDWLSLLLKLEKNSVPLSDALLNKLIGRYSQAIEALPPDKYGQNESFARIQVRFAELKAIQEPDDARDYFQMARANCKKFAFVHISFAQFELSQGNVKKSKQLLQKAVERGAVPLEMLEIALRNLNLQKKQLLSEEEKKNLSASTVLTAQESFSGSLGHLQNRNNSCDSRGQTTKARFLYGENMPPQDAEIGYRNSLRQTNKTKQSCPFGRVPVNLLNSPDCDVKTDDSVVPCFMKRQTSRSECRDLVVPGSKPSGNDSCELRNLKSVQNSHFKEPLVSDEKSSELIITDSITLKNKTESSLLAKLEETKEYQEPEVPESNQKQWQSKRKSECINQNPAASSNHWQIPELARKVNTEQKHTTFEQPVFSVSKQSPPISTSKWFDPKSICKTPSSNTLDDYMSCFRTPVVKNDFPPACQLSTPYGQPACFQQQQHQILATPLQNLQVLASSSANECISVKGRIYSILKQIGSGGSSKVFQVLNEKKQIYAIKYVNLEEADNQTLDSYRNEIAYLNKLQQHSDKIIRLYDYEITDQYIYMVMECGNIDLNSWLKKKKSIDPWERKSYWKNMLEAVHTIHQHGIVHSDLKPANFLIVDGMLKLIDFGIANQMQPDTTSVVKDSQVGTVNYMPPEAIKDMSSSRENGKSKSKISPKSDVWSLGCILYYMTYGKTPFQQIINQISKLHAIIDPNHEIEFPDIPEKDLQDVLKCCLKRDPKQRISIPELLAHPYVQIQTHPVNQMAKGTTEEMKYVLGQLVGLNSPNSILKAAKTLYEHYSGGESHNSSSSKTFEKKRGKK
# Assay: Mps-1 kinase assay (TR-FRET)
# Assay type: biochemical
# Details: N-terminally GST-tagged human full length recombinant Mps-1; 10 μM ATP; 1 μM peptide substrate; 15 min pre-incubation; 60 min at 22° C.
# Protocol: The human kinase Mps-1 phosphorylates a biotinylated substrate peptide. Detection of the phosphorylated product is achieved by time-resolved fluorescence resonance energy transfer (TR-FRET) from Europium-labelled anti-phospho-Serine/Threonine antibody as donor to streptavidin labelled with cross-linked allophycocyanin (SA-XLent) as acceptor. Compounds are tested for their inhibition of the kinase activity.
# N-terminally GST-tagged human full length recombinant Mps-1 kinase (purchased from Invitrogen, Karslruhe, Germany, cat. no PV4071) was used. As substrate for the kinase reaction a biotinylated peptide of the amino-acid sequence […] (C-terminus in amide form, purchased from Biosynthan GmbH, Berlin) was used.
# The concentration of Mps-1 in the assay was adjusted to the activity of the enzyme lot and was chosen appropriate to have the assay in the linear range, typical enzyme concentrations were in the range of about 1 nM (final conc. in the 5 μl assay volume).
# The resulting mixture was incubated 1 h at 22° C. to allow the binding of the phosphorylated peptide to the anti-phospho(Ser/Thr)-Europium-antibody. Subsequently the amount of phosphorylated substrate was evaluated by measurement of the resonance energy transfer from the Europium-labelled anti-phospho(Ser/Thr) antibody to the Streptavidin-XLent. Therefore, the fluorescence emissions at 620 nm and 665 nm after excitation at 350 nm was measured in a Viewlux TR-FRET reader (PerkinElmer LAS, Rodgau-Jügesheim, Germany). The “blank-corrected normalized ratio” (a Viewlux specific readout, similar to the traditional ratio of the emissions at 665 nm and at 622 nm, in which blank and Eu-donor crosstalk are subtracted from the 665 nm signal before the ratio is calculated) was taken as the measure for the amount of phosphorylated substrate.
row,Compound,IC50 [nM]
1,"CC(C)CNc1nc(-c2ccc(C(=O)N3CCCC3)cc2)cn2c(-c3ccc(C(=O)NC4CC4)cc3)cnc12 [Example 1-26, N-cyclopropyl-4-{8-[(2-methylpropyl)amino]-6-[4-(pyrrolidin-1-yl-carbonyl)phenyl]imidazo [1,2-a]pyrazin-3-yl} benzamide]",3.9
2,"CC(C)CNc1nc(-c2cccc(C(=O)N(C)C)c2)cn2c(-c3ccc(C(=O)NC4CC4)cc3)cnc12 [Example 1-27, 3-{3-[4-(cyclopropyl-carbamoyl)phenyl]-8-[(2-methylpropyl)amino]imidazo[1,2-a]pyrazin-6-yl}-N,N-dimethyl-benzamide]",8.1
3,"CC(C)CNc1nc(-c2ccccc2C(=O)N(C)C)cn2c(-c3ccc(C(=O)NC4CC4)cc3)cnc12 [Example 1-28, 2-{3-[4-(cyclopropyl-carbamoyl)phenyl]-8-[(2-methylpropyl)amino]imidazo[1,2-a]pyrazin-6-yl}-N,N-dimethyl-benzamide]",8.2
4,"CC(C)CNc1nc(-c2ccc(C(=O)NC3CC3)cc2)cn2c(-c3ccc(C(=O)NC4CC4)cc3)cnc12 [Example 1-30, 4,4′-{8-[(2-methylpropyl)amino]imidazo[1,2-a]pyrazine-3,6-diyl}bis (N-cyclopropylbenzamide)]",1.5
5,"CNC(=O)c1ccc(-c2cn3c(-c4ccc(C(=O)NC5CC5)cc4)cnc3c(NCC(C)C)n2)cc1 [Example 1-31, 4-{3-[4-(cyclopropyl-carbamoyl)phenyl]-8-[(2-methylpropyl)amino]imidazo[1,2-a]pyrazin-6-yl}-N-methylbenzamide]",1.3
6,"CC(C)CNc1nc(-c2cccc3cnccc23)cn2c(-c3ccc(C(=O)NC4CC4)cc3)cnc12 [Example 1-32, N-cyclopropyl-4-{6-(iso-quinolin-5-yl)-8-[(2-methylpropyl)amino]imidazo[1,2-a]pyrazin-3-yl}benzamide]",1.3
7,"CNC(=O)c1cccc(-c2cn3c(-c4ccc(C(=O)NC5CC5)cc4)cnc3c(NCC(C)C)n2)c1 [Example 1-33, 3-{3-[4-(cyclopropyl-carbamoyl)phenyl]-8-[(2-methylpropyl)amino]imidazo[1,2-a]pyrazin-6-yl}-N-methylbenzamide]",1.4
8,"CC(C)CNc1nc(-c2cccc(C(F)(F)F)c2)cn2c(-c3ccc(C(=O)NC4CC4)cc3)cnc12 [Example 1-35, N-cyclopropyl-4-{8-[(2-methylpropyl)amino]-6-[3-(trifluoromethyl)phenyl]imidazo[1,2-a]pyrazin-3-yl}benzamide]",49.3
9,"Cc1cc(C)cc(-c2cn3c(-c4ccc(C(=O)NC5CC5)cc4)cnc3c(NCC(C)C)n2)c1 [Example 1-39, N-cyclopropyl-4-{6-(3,5-dimethylphenyl)-8-[(2-methylpropyl)amino]imidazo[1,2-a]pyrazin-3-yl}benzamide]",32.3
10,"CC(C)CNc1nc(-c2ccc(Cl)c(Cl)c2)cn2c(-c3ccc(C(=O)NC4CC4)cc3)cnc12 [Example 1-45, N-cyclopropyl-4-{6-(3,4-dichlorophenyl)-8-[(2-methylpropyl)amino]imidazo[1,2-a]pyrazin-3-yl}benzamide]",22.6
11,"CC(=O)c1cccc(-c2cn3c(-c4ccc(C(=O)NC5CC5)cc4)cnc3c(NCC(C)C)n2)c1 [Example 1-46, 4-{6-(3-acetylphenyl)-8-[(2-methylpropyl)amino]imidazo[1,2-a]pyrazin-3-yl}-N-cyclo-propylbenzamide]",2.3
12,"CC(C)CNc1nc(-c2ccc(Oc3ccccc3)cc2)cn2c(-c3ccc(C(=O)NC4CC4)cc3)cnc12 [Example 1-47, N-cyclopropyl-4-{8-[(2-methylpropyl)amino]-6-(4-phenoxyphenyl)imidazo[1,2-a]pyrazin-3-yl}benzamide]",78.9
13,"CC(=O)c1ccc(-c2cn3c(-c4ccc(C(=O)NC5CC5)cc4)cnc3c(NCC(C)C)n2)cc1 [Example 1-48, 4-{6-(4-acetylphenyl)-8-[(2-methylpropyl)amino]imidazo[1,2-a]pyrazin-3-yl}-N-cyclopropyl-benzamide]",1.1

# Continued by falling IC50, values first:
row,IC50 [nM],Compound
1,49,"CC(C)CNc1nc(-c2ccc3ccccc3c2)cn2c(-c3ccc(C(=O)NC4CC4)cc3)cnc12 [Example 1-42, N-cyclopropyl-4-{8-[(2-methylpropyl)amino]-6-(naphthalen-2-yl)imidazo[1,2-a]pyrazin-3-yl}benzamide]"
2,30,"CC(C)CNc1nc(-c2ccc(C(F)(F)F)cc2)cn2c(-c3ccc(C(=O)NC4CC4)cc3)cnc12 [Example 1-36, N-cyclopropyl-4-{8-[(2-methylpropyl)amino]-6-[4-(trifluoromethyl)phenyl]imidazo[1,2-a]pyrazin-3-yl}benzamide]"
3,16.3,"CC(C)CNc1nc(-c2ccccc2C(F)(F)F)cn2c(-c3ccc(C(=O)NC4CC4)cc3)cnc12 [Example 1-43, N-cyclopropyl-4-{8-[(2-methylpropyl)amino]-6-[2-(trifluoromethyl)phenyl]imidazo[1,2-a]pyrazin-3-yl}benzamide]"
4,15.2,"CC(C)CNc1nc(-c2cccc(Cl)c2)cn2c(-c3ccc(C(=O)NC4CC4)cc3)cnc12 [Example 1-37, 4-{6-(3-chlorophenyl)-8-[(2-methylpropyl)amino]imidazo[1,2-a]pyrazin-3-yl}-N-cyclopropyl-benzamide]"
5,15.1,"CC(C)CNc1nc(-c2cccc(OC(C)C)c2)cn2c(-c3ccc(C(=O)NC4CC4)cc3)cnc12 [Example 1-29, N-cyclopropyl-4-{8-[(2-methylpropyl)amino]-6-[3-(propan-2-yloxy)phenyl]imidazo[1,2-a]pyrazin-3-yl}benzamide]"
6,7.4,"COc1ccccc1-c1cn2c(-c3ccc(C(=O)NC4CC4)cc3)cnc2c(NCC(C)C)n1 [Example 1-41, N-cyclopropyl-4-{6-(2-methoxyphenyl)-8-[(2-methylpropyl)amino]imidazo[1,2-a]pyrazin-3-yl}benzamide]"
7,7.2,"CC(C)CNc1nc(-c2ccc(-c3ccccc3)cc2)cn2c(-c3ccc(C(=O)NC4CC4)cc3)cnc12 [Example 1-49, 4-{6-(biphenyl-4-yl)-8-[(2-methylpropyl)amino]imidazo[1,2-a]pyrazin-3-yl}-N-cyclopropyl-benzamide]"
8,6.9,"CC(C)CNc1nc(-c2cccc(F)c2)cn2c(-c3ccc(C(=O)NC4CC4)cc3)cnc12 [Example 1-40, N-cyclopropyl-4-{6-(3-fluorophenyl)-8-[(2-methylpropyl)amino]imidazo[1,2-a]pyrazin-3-yl}benzamide]"
9,5.8,"CCOc1cccc(-c2cn3c(-c4ccc(C(=O)NC5CC5)cc4)cnc3c(NCC(C)C)n2)c1 [Example 1-44, N-cyclopropyl-4-{6-(3-ethoxyphenyl)-8-[(2-methylpropyl)amino]imidazo[1,2-a]pyrazin-3-yl}benzamide]"
10,4.8,"COc1cccc(-c2cn3c(-c4ccc(C(=O)NC5CC5)cc4)cnc3c(NCC(C)C)n2)c1 [Example 1-38, N-cyclopropyl-4-{6-(3-methoxyphenyl)-8-[(2-methylpropyl)amino]imidazo[1,2-a]pyrazin-3-yl}benzamide]"
11,4.2,"CC(C)CNc1nc(-c2ccc(C(=O)NC(C)C)cc2)cn2c(-c3ccc(C(=O)NC4CC4)cc3)cnc12 [Example 1-34, 4-{3-[4-(cyclopropyl-carbamoyl)phenyl]-8-[(2-methylpropyl)amino]imidazo[1,2-a]pyrazin-6-yl}-N-(propan-2-yl) benzamide]"
12,1.2,"CC(C)CNc1nc(-c2cccc(C(N)=O)c2)cn2c(-c3ccc(C(=O)NC4CC4)cc3)cnc12 [Example 1-25, 4-{6-(3-carbamoylphenyl)-8-[(2-methylpropyl)amino]imidazo[1,2-a]pyrazin-3-yl}-N-cyclo-propylbenzamide]"
